Results as given in patent US20030055065A1, “Tricyclic amide and urea compounds useful for inhibition of G-protein function and for treatment of proliferative diseases” (priority 1993, published 2003).
Values joined by “and” are separate entries in the source; they are usually repeats but may differ in a detail not shown here. Identical values can stand only once. Like-named read-outs stand apart in the source and are kept apart here.

What was measured:
[1] = target: T1, farnesyl protein transferase (FPT), partially purified from rat brain (Rattus norvegicus, UniProt Q02293+Q04631); test: Inhibition of farnesyl protein transferase (transfer of [3H]farnesyl to Ras-CVLS); type: biochemical
T1 construct: were partially purified from rat brain by ammonium sulfate fractionation followed by Q-Sepharose
T1 sequence (Q02293 whole entry, one chain of several): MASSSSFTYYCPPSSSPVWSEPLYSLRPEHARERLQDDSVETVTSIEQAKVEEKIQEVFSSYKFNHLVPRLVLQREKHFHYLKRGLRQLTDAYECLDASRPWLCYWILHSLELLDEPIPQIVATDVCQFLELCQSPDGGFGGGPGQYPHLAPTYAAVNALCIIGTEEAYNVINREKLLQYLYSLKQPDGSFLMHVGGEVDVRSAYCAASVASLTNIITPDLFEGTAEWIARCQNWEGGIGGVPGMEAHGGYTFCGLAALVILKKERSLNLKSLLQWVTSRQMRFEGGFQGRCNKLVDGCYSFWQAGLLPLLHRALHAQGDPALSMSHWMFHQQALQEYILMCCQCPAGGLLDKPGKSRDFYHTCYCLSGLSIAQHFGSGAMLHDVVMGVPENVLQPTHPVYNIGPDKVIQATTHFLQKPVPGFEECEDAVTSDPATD
Method in brief: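 Transfer of [3H]farnesyl onto E. coli-expressed, His6-tagged Ras-CVLS was measured after 30 min at room temperature. Radiolabelled Ras was TCA-precipitated on ice and filter-harvested, and inhibition was expressed as percent of DMSO control.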

[2] = system: Ras-CVLS processing in COS monkey kidney cells; test: COS cell assay: Ras-CVLS processing (Western blot); type: cell-based; conditions: COS cells; for IC50: read-out: Inhibition of Ras Processing IC50
Description: 2. […] Effect of farnesyl protein transferase inhibitors on Ras processing and on disordered cell growth induced by transforming Ras. COS monkey kidney cells were transfected by electroporation with the plasmid pSV-SPORT (Gibco/BRL) containing a cDNA insert encoding either Ras-CVLS or Ras-CVLL, leading to transient overexpression of a Ras substrate for either farnesyl protein transferase or geranylgeranyl protein transferase I, respectively (see above). […] After 24 hours, media was removed and fresh media containing the appropriate drugs was re-added. 48 hours after electroporation cells were examined under the microscope to monitor disordered cell growth induced by transforming Ras. Cells expressing transforming Ras become more rounded and refractile and overgrow the monolayer, reminiscent of the transformed phenotype. […] Cells were lysed by homogenization and cell debris was removed by centrifugation at 2000×g for 10 min. Cellular protein was precipitated by addition of ice-cold trichloroacetic acid and redissolved in 100 μl of SDS-electrophoresis sample buffer. […] Proteins resolved on the gels were electroblotted onto nitrocellulose membranes for immunodetection. […] E., et al., (1982), Monoclonal antibodies to the p21 products of the transforming gene of Harvey murine sarcome virus and of the cellular ras gene family, J. Virol. 43: 294-304), in PBS containing 1% fetal calf serum for one hour at room temperature. After washing, membranes were incubated for one hour at room temperature with a 1:5000 dilution of secondary antibody, rabbit anti-rat IgG conjugated to horseradish peroxidase, in PBS containing 1% fetal calf serum.

[3] = system: T24-BAG4 human bladder carcinoma cells expressing an activated H-ras gene; test: Cell Mat Assay: tumor cell colony inhibition (tIC50); type: cell-based; conditions: inhibition of tumor cell growth
Description: (§1) Compound-induced colony inhibition was assayed by addition of serial dilutions of compound directly to the growth medium 24 h after tumor cell planting, and incubating cells for an additional 14 d to allow colony formation. Assays were terminated by rinsing monolayers twice with phosphate-buffered saline (PBS), fixing the monolayers with a 1% glutaraldehyde solution in PBS, then visualizing tumor cells by staining with X-Gal (Price, J., et al., Lineage analysis in the vertebrate nervous system by retrovirus-mediated gene transfer, Proc. Natl. Acad. Sci.84, 156-160(1987)). […] Both IC50 values were obtained by determining the density of tumor cells and mat cells by visual inspection and enumeration of cells per colony and the number of colonies under the microscope.

[4] = system: Normal human HEPM fibroblasts; test: Cell Mat Assay: density of mat cells (mIC50); type: cell-based
Description: as §1

[5] = Ras-CVLS farnesylation, partially purified rat brain FPT, read-out: FPT IC50
[6] = enzyme inhibition, read-out: FPT IC50

Compound | IC50 [1, 5] | IC50 ([3]; Homo sapiens) | IC50 [3] | IC50 [1, 6] | IC50 ([2]; Primates, COS) | IC50 ([4]; Homo sapiens, Fibroblast) | IC50 ([1]; FPT IC50, Ras-CVLS farnesylation, partially purified rat brain FPT) | IC50 ([2]; listed as 266 (5.138)) | IC50 ([2]; listed as 285 (5.153)) | IC50 [2] | IC50 [4] | Inhibition of Ras Processing at the concentration in parentheses ([2]; (5) μM)
CN1CCC(CC(=O)N2CCN(C3c4ccc(Cl)cc4CCc4cccnc43)CC2)CC1 (stereo not drawn) [Example 201] | 1.4 µM | 3.1 µM | – | – | 0.93 µM | 12.5 µM | – | – | – | – | – | –
COc1cnc2c(c1)CCc1cc(Cl)ccc1C2=C1CCN(C(=O)Cc2cccnc2)CC1 [Example 239, 4-(8-Chloro-3-methoxy-5,6-dihydro-11H-benzo[5,6]cyclohepta[1,2-b]pyridin-11-ylidene)-1-[(3-pyridinyl]acetyl]-piperidine] | 1.75 µM | 37 µM | – | – | 4.6 µM | > 50 µM | – | – | – | – | – | –
O=C(Cc1cccnc1)N1CCC(C2c3ccc(Cl)cc3C=Cc3cccnc32)CC1 (stereo not drawn) [Example 266] | – | 3.1 µM | – | – | 0.77 µM | 6.25 µM | 0.46 µM | 0.89 µM | – | – | – | –
O=C1Cc2cc(Cl)ccc2C(=C2CCN(C(=O)Cc3ccncc3)CC2)c2ncccc21 [Example 281] | 2.9 µM | 4 µM | – | – | 7 µM | > 50 µM | – | – | – | – | – | –
O=C1Cc2cccnc2C(=C2CCN(C(=O)Cc3cccnc3)CC2)c2ccc(Cl)cc21 [Example 283] | 0.48 µM and 0.55 µM | 10 µM | – | – | 5.6 µM | > 50 µM | – | – | – | – | – | –
O=C1Cc2cccnc2C(=C2CCN(C(=O)Cc3ccncc3)CC2)c2ccc(Cl)cc21 [Example 285] | 0.76 µM | 12.5 µM | – | – | 5.2 µM | > 50 µM | – | – | 10.1 µM | – | – | –
CC(C)(C(=O)N1CCC(=C2c3ccc(Cl)cc3CCc3cccnc32)CC1)c1cccnc1 [Example 300] | 0.96 µM | < 3.1 µM | – | – | 2.6 µM | > 50 µM | – | – | – | – | – | –
CC(C)(C(=O)N1CCN(C2c3ccc(Cl)cc3CCc3cc(Br)cnc32)CC1)c1ccc[n+]([O-])c1 (stereo not drawn) [Example 352] | 0.74 µM and 0.38 µM | 1.6 µM | – | – | 2.2 µM | > 25 µM | – | – | – | – | – | –
CC(C)(C(=O)N1CCC(=C2c3ccc(Cl)cc3CCc3cc(Br)cnc32)CC1)c1ccc[n+]([O-])c1 [Example 411-A] | – | 1.6 µM | – | 0.59 µM | 0.7 µM | > 25 µM | – | – | – | – | – | –
O=C(Cc1ccncc1)N1CCC(C2c3ccc(Cl)cc3C=Cc3cc([N+](=O)[O-])cnc32)CC1 (stereo not drawn) [Example 411-B] | – | 6.25 µM | – | 0.32 µM | 1.8 µM | > 25 µM | – | – | – | – | – | –
CC(C)(C(=O)N1CCC(=C2c3ccc(Cl)cc3CCc3cc(Br)cnc32)CC1)c1cc[n+]([O-])cc1 [Example 411-D] | – | 8 µM | – | 0.62 µM | 1.6 µM | > 25 µM | – | – | – | – | – | –
O=C(Cc1cc[n+]([O-])cc1)N1CCN([C@H]2c3ccc(Cl)cc3CCc3cccnc32)CC1 [Example 425-E] | – | 1.6 µM | – | 0.49 µM | 5 µM | > 25 µM | – | – | – | – | – | –
CC(C)(C(=O)N1CCN(C2c3ccc(Cl)cc3CCc3cc(Br)cnc32)CC1)c1cc[n+]([O-])cc1 (stereo not drawn) [Example 425-J] | – | 3.1 µM | – | 0.39 µM | 5 µM | > 25 µM | – | – | – | – | – | –
O=C(Cc1cc[n+]([O-])cc1)N1CCN(C2c3ccc(Cl)cc3CCc3c(Cl)ccnc32)CC1 (stereo not drawn) [Example 426-A] | – | 6.25 µM | – | 0.33 µM | > 5 µM | > 25 µM | – | – | – | – | – | –

The next lines start with results.

IC50 [1, 5] | IC50 ([3]; Homo sapiens) | IC50 [3] | IC50 [1, 6] | Compound | IC50 ([2]; Primates, COS) | IC50 ([4]; Homo sapiens, Fibroblast) | IC50 ([1]; FPT IC50, Ras-CVLS farnesylation, partially purified rat brain FPT) | IC50 ([2]; listed as 266 (5.138)) | IC50 ([2]; listed as 285 (5.153)) | IC50 [2] | IC50 [4] | Inhibition of Ras Processing at the concentration in parentheses ([2]; (5) μM)
1.19 µM | < 3.1 µM | – | – | CN1CCCC(CC(=O)N2CCN(C3c4ccc(Cl)cc4CCc4cccnc43)CC2)C1 (stereo not drawn) [Example 206] | 2.4 µM | 16 µM | – | – | – | – | – | –
0.67 µM | 18 µM | – | – | O=C(Cc1ccc[n+]([O-])c1)N1CCC(C2c3ccc(Cl)cc3CCc3cccnc32)CC1 (stereo not drawn) [Example 233] | 10 µM | > 50 µM | – | – | – | – | – | –
1.77 µM | 12.5 µM | – | – | O=C(Cc1cccnc1)N1CCC(=C2c3ccc(Cl)cc3C=Cc3cccnc32)CC1 [Example 276] | 2.9 µM | 50 µM | – | – | – | – | – | –
1.5 µM | 25 µM | – | – | O=C(Cc1ccncc1)N1CCC(=C2c3ccc(Cl)cc3C(O)Cc3cccnc32)CC1 (stereo not drawn) [Example 286] | 8.3 µM | > 50 µM | – | – | – | – | – | –
2.11 µM | 18 µM | – | – | O=C(Nc1ccccn1)N1CCC(=C2c3ccc(Cl)cc3CCc3cccnc32)CC1 [Example 294] | 5.2 µM | > 50 µM | – | – | – | 2.8 µM | – | –
0.76 µM and 0.3 µM | 6.25 µM | – | – | CC(C)(C(=O)N1CCN(C2c3ccc(Cl)cc3CCc3cc(Br)cnc32)CC1)c1cccnc1 (stereo not drawn) [Example 353] | 0.9 µM | > 25 µM | – | – | – | – | – | –
5 µM | – | 6.25 µM | – | O=C(Nc1cccnc1)N1CCC(C2c3ccccc3CCc3cccnc32)CC1 (stereo not drawn) [Example 365] | – | – | – | – | – | 3.1 µM | > 50 µM | –
4 µM | – | 3.1 µM | – | O=C(Nc1ccncc1)N1CCC(C2c3ccccc3CCc3cccnc32)CC1 (stereo not drawn) [Example 366] | – | – | – | – | – | 3.3 µM | > 50 µM | –
3.3 µM | – | 6.25 µM | – | O=C(Nc1ccccc1)N1CCC(C2c3ccccc3CCc3cccnc32)CC1 (stereo not drawn) [Example 367] | – | – | – | – | – | 6.2 µM | > 50 µM | –
0.095 µM and 0.09 µM | < 1.6 µM | < 0.8 µM | 0.095 µM and 0.09 µM | O=C(Cc1cc[n+]([O-])cc1)N1CCC(=C2c3ccc(Cl)cc3CCc3cc(Br)cnc32)CC1 [Example 400-L] | 0.6 µM | > 25 µM | – | – | – | 0.65 µM | > 12.5 µM | –
– | 6.25 µM | 4 µM | 0.7 µM | O=C(Cc1ccc[n+]([O-])c1)N1CCC(=C2c3ccc(Cl)cc3CCc3cc(Br)cnc32)CC1 [Example 411-G] | 5.1 µM | > 25 µM | – | – | – | – | > 12.5 µM | –
– | 18 µM | – | 0.32 µM | CC(C)(C(=O)N1CCC(=C2c3ccc(Cl)cc3CCc3cc(Br)cnc32)CC1)c1ccncc1 [Example 411] | ~1 µM | > 25 µM | – | – | – | – | – | 93 (5)
– | 10 µM | – | 1.16 µM | CCc1cc2c(cc1Cl)C=Cc1cccnc1C2C1CCN(C(=O)Cc2ccncc2)CC1 (stereo not drawn) [Example 417] | 4 µM | 18 µM | – | – | – | – | – | –
– | 25 µM | – | 1.85 µM | O=C1Cc2cccnc2C(=C2CCN(C(=O)Cc3cc[n+]([O-])cc3)CC2)c2ccc(Cl)cc21 [Example 418] | > 10 µM | > 25 µM | – | – | – | – | – | –
– | > 3.1 µM | – | 0.45 µM | CN1CCC(CC(=O)N2CCN(C3c4ccc(Cl)cc4CCc4c(Cl)ccnc43)CC2)CC1 (stereo not drawn) [Example 425-P] | 5.7 µM | 3.1 µM | – | – | – | – | – | –
